Experimental data as given in patent US20180319766A1, “CO-CRYSTALS OF BENZIMIDAZOLE COMPOUNDS” (FAES FARMA, S.A., priority 2015, published 2018).

Key:
[1] = Stability of the cocrystal under forced conditions of humidity and temperature (ICH), XRPD; assay type: physicochemical; conditions: 40° C.
Description: […] The solids were analyzed by XRPD every day during the first week and once a week afterwards, to detect possible crystalline transformations.

ΔpKa bilastine-coformer = assay type: physicochemical
[2] = Solubility of cocrystals in water at room temperature, relative to bilastine (HPLC); conditions: 400 mg of product in 24 ml, result in words, data only in figures
Description: Solubility of cocrystals was determined by stirring the product in water at room temperature (400 mg of product in 24 ml of water, 60 vol.). The product was previously milled in order to reduce the crystal size effect. A sample is collected and filtered using a sintered funnel (n° 3) periodically (30, 60, 180 min and after overnight). The filtered solid was immediately analyzed by XRPD, while the mother liquors are filtered through a 0.22 um filter and the concentration of Bilastine is determined by HPLC area (in some experiments where a high solubility was detected the mother liquor was diluted by a factor 10). This concentration is compared with the Bilastine concentration obtained in the same conditions in order to determine a relative solubility.
HPLC analyses were performed by duplicate on an Agilent 1100 series apparatus with a XBridge C-18 column at room temperature. 25μL sample were injected. The mobile phase (isocratic) was set as following: 52%(Methanol:aqueous octylamine 0.01M pH=7, 65:35)−42% (Acetonitrile:aqueous octylamine 0.01M pH=7, 60:40)

[3] = pH range 5-8; cited from earlier work
[4] = bilastine as zwitterion; cited from earlier work

| SMILES | Time the crystalline form is stable under forced conditions (XRPD) ([1]; 75±5% RH) | Time the crystalline form is stable under forced conditions (XRPD) ([1]; 70±5% RH) | also measured |
| --- | --- | --- | --- |
| CCOCCn1c(C2CCN(CCc3ccc(C(C)(C)C(=O)O)cc3)CC2)nc2ccccc21.Nc1ccc(C(=O)O)cc1 [AB(VII)] | at least 1 week | – | – |
| CCOCCn1c(C2CCN(CCc3ccc(C(C)(C)C(=O)O)cc3)CC2)nc2ccccc21.CCOCCn1c(C2CCN(CCc3ccc(C(C)(C)C(=O)O)cc3)CC2)nc2ccccc21.Nc1ccc(C(=O)O)cc1 [AB(VIII)] | at least 1 week | – | – |
| CCOCCn1c(C2CCN(CCc3ccc(C(C)(C)C(=O)O)cc3)CC2)nc2ccccc21.O=C(O)CCCCC(=O)O [AD(I)] | – | at least 1 weeks | – |
| CCOCCn1c(C2CCN(CCc3ccc(C(C)(C)C(=O)O)cc3)CC2)nc2ccccc21.CCOCCn1c(C2CCN(CCc3ccc(C(C)(C)C(=O)O)cc3)CC2)nc2ccccc21.O=C(O)CCCCC(=O)O [AD(III)] | – | at least 1 weeks | – |
| CCOCCn1c(C2CCN(CCc3ccc(C(C)(C)C(=O)O)cc3)CC2)nc2ccccc21.CCOCCn1c(C2CCN(CCc3ccc(C(C)(C)C(=O)O)cc3)CC2)nc2ccccc21.O=C(O)CCCC(=O)O [GL(I)] | – | at least 4 weeks | – |
| CCOCCn1c(C2CCN(CCc3ccc(C(C)(C)C(=O)O)cc3)CC2)nc2ccccc21.O=C(O)CCCC(=O)O [GL(V)] | – | at least 4 weeks | – |
| O=C(O)C[C@H](O)C(=O)O [L-Malic acid] | – | – | ΔpKa bilastine-coformer (ΔpKa bilastine-coformer): 0.94 |
| CC=CC=CC(=O)O.CCOCCn1c(C2CCN(CCc3ccc(C(C)(C)C(=O)O)cc3)CC2)nc2ccccc21.CCOCCn1c(C2CCN(CCc3ccc(C(C)(C)C(=O)O)cc3)CC2)nc2ccccc21 [SO(I)] | at least 1 week | – | Solubility comparison with bilastine BLN(I) [2]: improves greatly the solubility of bilastine |
| CCOCCn1c(C2CCN(CCc3ccc(C(C)(C)C(=O)O)cc3)CC2)nc2ccccc21.O=C(O)CCC(=O)O [SU(VI)] | at least 1 week | – | – |
| CCOCCn1c(C2CCN(CCc3ccc(C(C)(C)C(=O)O)cc3)CC2)nc2ccccc21.CCOCCn1c(C2CCN(CCc3ccc(C(C)(C)C(=O)O)cc3)CC2)nc2ccccc21.O=C(O)CCC(=O)O [SU(VII)] | at least 1 week | – | – |
| CCOCCn1c(C2CCN(CCc3ccc(C(C)(C)C(=O)O)cc3)CC2)nc2ccccc21 [bilastine, 2-[4-(2-{4-[1-(2-Ethoxyethyl)-1H-benzimidazol-2-yl]-1-piperidinyl}ethyl)phenyl]-2-methylpropanoic acid] | – | – | Solubility [3]: around 500 μg/mL; pKa of the acid function (carboxylate) [4]: 4.4; pKa of the base function (protonated amine) [4]: 8.8 |
